US20040197222A1 (priority 2002, published 2004)
“Also recorded” adds a separate entry of the source. Where two headings read alike, the source gives them in different places.

Key:
[1] = tested on: 10^6 spores of B. subtilis var. niger ATCC # 9372; type: cell-based, Bacillus subtilis var. niger; settings: trailer, 20 sites, 28 °C to 38 °C, 250 to 350 oz/mcf, 48 hours
B. atrophaeus spores = type: cell-based
[2] = tested on: B. subtilis var. niger spores (10^6, ATCC #9372); type: cell-based, Bacillus subtilis var. niger; settings: for germination of B. subtilis spores: exposure as long as 164 hours
[3] = tested on: Bacillus anthracis ANR-1 spores; type: cell-based; settings: 37 °C; for reduction in B. anthracis spores: all concentrations tested (80 to 320 mg/L)
[4] = tested on: 10^5 of B. stearothermophilus ATCC # 7953; experiment: Trailer field fumigation, combined-species spore strips incubated for B. stearothermophilus; type: cell-based, Bacillus stearothermophilus
[5] = tested on: B. subtilis var. niger strips containing 10^8 spores; type: cell-based, Bacillus subtilis var. niger; settings: 28 °C to 38 °C, 250 to 350 oz/mcf, 48 hours
[6] = tested on: G. stearothermophilus spores; type: cell-based
[7] = tested on: B. stearothermophilus spores (10^5, ATCC #7953); type: cell-based, Bacillus stearothermophilus

In the case of `CBr` [methyl bromide], the “spores on all 10^6 B. subtilis strips, field fumigation” value [1] is reported as “successfully disabled”, the “spores on all 10^6 B. subtilis strips, field fumigation” value ([1]; listed as MB) is reported as “killed” and the “Recovery of viable spores, commercial spore strips B. atrophaeus” value (B. atrophaeus spores) is reported as “no growth; also recorded: growth”. For the same molecule, the “killing of B. atrophaeus spores on a spore strip” value (B. atrophaeus spores) was “insufficient to kill all B. atrophaeus spores”, the “Spore Germination B. subtilis” value ([2]; 19 °C, MeBr 48 mg/l (theoretical), 104 hours, 5,000 mg-hr/l) was “yes” and the “Spore Germination B. subtilis” value ([2]; 19 °C, MeBr 48 mg/l (theoretical), 146 hours, 7,000 mg-hr/l) was “yes”. For the same molecule, the “Spore Germination B. subtilis” value ([2]; 19 °C, MeBr 80 mg/l (theoretical), 112 hours, 9,000 mg-hr/l) was “yes”, the “Spore Germination B. subtilis” value ([2]; 19 °C, MeBr 80 mg/l (theoretical), 134 hours, 11,000 mg-hr/l) was “yes” and the “Spore Germination B. subtilis” value ([2]; 19 °C, MeBr 80 mg/l (theoretical), 164 hours, 13,120 mg-hr/l) was “yes”. The “Spore Germination B. subtilis” value ([2]; 19 °C, MeBr 160 mg/l (theoretical), 164 hours, 26,240 mg-hr/l) was “yes”, the “germination of B. subtilis spores” value ([2]; 19 °C, methyl bromide 48 to 80 mg/l (theoretical value)) was “still germinated” and the “germination of B. subtilis spores” value ([2]; 19 °C, methyl bromide as high as 320 mg/l (theoretical value)) was “still able to germinate”. The “B. subtilis spore germination” value ([2]; 27 °C, methyl bromide 320 mg/l (theoretical value), 72 hours) was “successfully disabled”, the “germination of the B. subtilis spores” value ([2]; 32 °C, methyl bromide 160 mg/l (theoretical value), 72 hours) was “not sufficient to stop germination; also recorded: not sufficient to prevent germination” and the “B. subtilis spore germination” value ([2]; 32 °C, methyl bromide 240 mg/l (theoretical value), 38 hours) was “successfully disabled”. For the same molecule, the “Spore Germination B. subtilis” value ([2]; Example 1, 19 °C, MeBr 48 mg/l (theoretical), 63 hours, 3,000 mg-hr/l) was “yes”, the “Spore Germination B. subtilis” value ([2]; Example 2, 19 °C, MeBr 48 mg/l (theoretical), 63 hours, 3,000 mg-hr/l) was “yes” and the “Spore Germination B. subtilis” value ([2]; Example 2, 20 °C, MeBr 320 mg/l (theoretical), 72 hours, 23,040 mg-hr/l) was “yes”. The “Spore Germination B. subtilis” value ([2]; Example 2, 20 °C, MeBr 320 mg/l (theoretical), 96 hours, 30,720 mg-hr/l) was “yes”, the “Spore Germination B. subtilis” value ([2]; Example 2, 27 °C, MeBr 240 mg/l (theoretical), 48 hours, 11,520 mg-hr/l) was “yes” and the “Spore Germination B. subtilis” value ([2]; Example 2, 27 °C, MeBr 320 mg/l (theoretical), 72 hours, 23,040 mg-hr/l) was “no”. The “Spore Germination B. subtilis” value ([2]; Example 2, 27 °C, MeBr 320 mg/l (theoretical), 96 hours, 30,720 mg-hr/l) was “no”, the “Spore Germination B. subtilis” value ([2]; Example 2, 27 °C, MeBr 320 mg/l (theoretical), 96 hours, 30,720 mg-hr/l, chamber contained office commodities) was “no^4” and the “Spore Germination B. subtilis” value ([2]; Example 3, 19 °C, MeBr 48 mg/l (theoretical), 63 hours, 3,000 mg-hr/l) was “no”. The “Spore Germination B. subtilis” value ([2]; Example 3, 27 °C, MeBr 320 mg/l (theoretical), 62 hours, 19,776 mg-hr/l) was “no”, the “Spore Germination B. subtilis” value ([2]; Example 3, 32 °C, MeBr 160 mg/l (theoretical), 72 hours, 11,520 mg-hr/l) was “yes” and the “Spore Germination B. subtilis” value ([2]; Example 3, 32 °C, MeBr 240 mg/l (theoretical), 48 hours, 11,520 mg-hr/l) was “no”. The “Spore Germination B. subtilis” value ([2]; Example 3, 32 °C, MeBr 240 mg/l (theoretical), 72 hours, 17,280 mg-hr/l) was “no”, the “Spore Germination B. subtilis” value ([2]; Example 3, 32 °C, MeBr 320 mg/l (theoretical), 38 hours, 12,160 mg-hr/l) was “no” and the “Spore Germination B. subtilis” value ([2]; Example 3, 32 °C, MeBr 320 mg/l (theoretical), 47 hours, 15,104 mg-hr/l) was “no”. The “lowest total concentration at which treatment is effective (B. anthracis)” value ([3]; 48 hours) was 80 mg/L, the “reduction in B. anthracis spores” value ([3]; 48 hours) was at least 7 log and the “reduction in B. anthracis spores” value ([3]; 48 hours, listed as MB) was at least 6 log. The “B. anthracis spores in chamber 6” value ([3]; chamber 6, 48 hours) was “completely killed”, the “B. anthracis spores remaining (detection level)” value ([3]; out of 14 million, 80 to 320 mg/L, 48 hours) was under 50 spores and the “spores on all 10^5 B. stearothermophilus strips, field fumigation” value [4] was “successfully disabled; also recorded: killed”. For the same molecule, the “germination of spores in strips with concentrations of 10^8, field fumigation” value [5] was “successfully disabled”, the “Recovery of viable spores, commercial spore strips G. stearothermophilus A” value [6] was “no growth” and the “Recovery of viable spores, commercial spore strips G. stearothermophilus B” value [6] was “no growth; also recorded: growth”. For the same molecule, the “killing of G. stearothermophilus spores on a spore strip” value [6] was “capable of killing all G. stearothermophilus spores”, the “Spore Germination B. stearo.” value [7] was “no and yes” and the “germination of Bacillus stearothermophilus spores” value [7] was “prevented from germinating”.
